# Where two headings read alike, the source gives them in different places.
# Tests used:
# Assay type in all cases: cell-based
# [1] = tested on: liver cancer cell line T2 HCC; assay: MTT assay of cellular proliferation, T2 HCC; settings: Mus musculus, read-out: EC50: Concentration that inhibits 50% of proliferation
# Procedure: (§1) Six lung cancer cell lines (NCI-H23, NCI-H460, NCI-H596, NCI-H2170, Calu-6 and A549), two colon cancer cell lines (HCT116 and SW460), one breast cancer cell line MDA-MB-231, one gastric cancer cell line NCI-N87, one prostate cancer cell line DU145, one cervical cancer cell line Hela, and one glioblastoma cell line T98G were obtained from ATCC. The T2 HCC cell line was derived from a mouse liver cancer model initiated by a transgene of MYC (Reference). All cell lines were cultured in DMEM (Gibco, Cleveland, TN, USA) supplemented with 5% fetal bovine serum (Gibco), penicillin (100 U/mL)-streptomycin (100 μg/mL) (Gibco, Cat. No. 15140-122), 2 mM L-glutamine (Gibco, 200 mM solution, Cat. No. 25030081), and 1 mM sodium pyruvate (Gibco, 100 mM solution, Cat. No. 11360070) at 37° C. in a humidified incubator that was maintained at 5% CO2.
# (§2) The MTT assay measures cellular metabolic activity as a proxy for cell viability and involves the conversion of the water-soluble yellow dye MTT [3-(4,5-dimethylthiazol-2-yl)-2,5-diphenyltetrazolium bromide] into an insoluble purple formazan by the action of mitochondrial reductase. Formazan is then solubilized and its concentration is determined by measuring the optical density (OD) value at a wavelength of 570 nm. The value is in proportional to the number of live cells with excellent linearity up to ˜10^6 cells per well. The MTT assay was used to determine the EC50 value, the concentration of a compound that leads to 50% inhibition of cellular proliferation. Briefly, cells were split when growing to the mid-Log phase. Cells in 100 μL of culture medium were seeded into each well of 96-well microplates and cultivated for 15˜24 hours to reach a confluence of 20˜30% and were then exposed to drugs at concentrations ranging from 1 nM to 10 μM. At the endpoint, 20 μL of a MTT stock solution in DMSO (5 mg/mL) was added to each well that contains […] of DMEM. The microplates were left in the cell culture incubator for 3˜4 h before subjected to solubilization and determination of formazan at A570 in a microplate reader (BioTek ELX808iu). […] Therefore, these compounds might hold a broad utility in the treatment of a large variety of human malignancies.
# [2] = tested on: colon cancer cell line HCT116; assay: Minimal effective concentration that elicits polyploidy, HCT116; settings: Homo sapiens, HCT-116, read-out: MECP: Minimal effective concentration that elicits polyploidy
# [3] = tested on: breast cancer cell line MDA-MB-231; assay: Minimal effective concentration that elicits polyploidy, MDA-MB-231; settings: Homo sapiens, read-out: MECP: Minimal effective concentration that elicits polyploidy
# [4] = tested on: lung cancer cell line NCI-H23; assay: MTT assay of cellular proliferation, NCI-H23; settings: Homo sapiens, read-out: EC50: Concentration that inhibits 50% of proliferation
# Procedure: as §1, §2
# [5] = tested on: gastric cancer cell line NCI-N87; assay: MTT assay of cellular proliferation, NCI-N87; settings: Homo sapiens, read-out: EC50: Concentration that inhibits 50% of proliferation
# Procedure: as §1, §2
# SW480 = assay: Minimal effective concentration that elicits polyploidy, SW480; settings: Homo sapiens, read-out: MECP: Minimal effective concentration that elicits polyploidy
# [6] = tested on: colon cancer cell line SW460; assay: MTT assay of cellular proliferation, SW460; settings: Homo sapiens, SW480; read-out: EC50: Concentration that inhibits 50% of proliferation
# Procedure: as §1, §2
# [7] = tested on: lung cancer cell line A549; assay: Minimal effective concentration that elicits polyploidy, A549; settings: Homo sapiens, read-out: MECP: Minimal effective concentration that elicits polyploidy
# [8] = tested on: lung cancer cell line NCI-H23; assay: Minimal effective concentration that elicits polyploidy, NCI-H23; settings: Homo sapiens, read-out: MECP: Minimal effective concentration that elicits polyploidy
# [9] = tested on: cervical cancer cell line Hela; assay: MTT assay of cellular proliferation, Hela; settings: Homo sapiens, read-out: EC50: Concentration that inhibits 50% of proliferation
# Procedure: as §1, §2
# [10] = tested on: liver cancer cell line T2 HCC; assay: Minimal effective concentration that elicits polyploidy, T2 HCC; settings: Mus musculus, read-out: MECP: Minimal effective concentration that elicits polyploidy
# [11] = tested on: cervical cancer cell line Hela; assay: Minimal effective concentration that elicits polyploidy, Hela; settings: Homo sapiens, read-out: MECP: Minimal effective concentration that elicits polyploidy
# [12] = tested on: lung cancer cell line A549; assay: MTT assay of cellular proliferation, A549; settings: Homo sapiens, read-out: EC50: Concentration that inhibits 50% of proliferation
# Procedure: as §1, §2
# [13] = tested on: breast cancer cell line MDA-MB-231; assay: MTT assay of cellular proliferation, MDA-MB-231; settings: Homo sapiens, read-out: EC50: Concentration that inhibits 50% of proliferation
# Procedure: as §1, §2
# RPEMYC^H2B-GFP cells [14] = assay: Mechanism-informed phenotypic screening assay (mitotic arrest, polyploidy; GE IN-Cell Analyzer 2000); settings: 20 nM to 20 μM, 24, 48 or 72 hours, read-out: Min. Effective conc. for polyploidy (≥5%)
# Procedure: We have Previously Developed a Mechanism-Informed Phenotypic Screening Assay to identify novel antimitotic agents (Li et al. 2019). Equipped with a prior understanding of the versatile functions of the chromosomal passenger protein (CPP) complex in orchestrating karyokinesis and cytokinesis, the screening assay is to score for phenotypes typically seen when the CPP complex is disabled. Specifically, the parameters for a positive hit are a temporary elevation of mitotic index (MI) at 24 hours of drug treatment and an accumulation of polyploid cells at 48 hours of drug treatment, indicative of mitotic arrest and cytokinetic failure respectively. These parameters exclude compounds that elicit only a prolonged arrest of cells in mitosis, a phenotype typically provoked by spindle toxins. The screening procedure is briefly summarized here. RPEMYC^H2B-GFP cells engineered to express a Histone 2B-EGFP fusion protein were passaged as batches of 96-well plates, 18-24 hours before exposure to the chemical compounds of the present disclosure at concentrations from 20 nM to 20 μM. At 24, 48 or 72 hours after initiation of treatment, cells were analyzed for either an arrest in mitosis or a change in DNA content by GE IN-Cell Analyzer 2000. As set forth in table 2 below, a value of greater than or equal to […] and less than or equal to 1.0 μM is marked e “A”; a value greater than […] and less than or equal to 10.0 μM is marked “B”; a value greater than 10.0 μM and less than or equal to 30.0 μM is marked “C”; and a value greater than 30.0 μM is marked “D.”
# [15] = tested on: colon cancer cell line HCT116; assay: MTT assay of cellular proliferation, HCT116; settings: Homo sapiens, HCT-116, read-out: EC50: Concentration that inhibits 50% of proliferation
# Procedure: as §1, §2
# RPEMYC^H2B-GFP cells [16] = assay: Mechanism-informed phenotypic screening assay (mitotic arrest, polyploidy; GE IN-Cell Analyzer 2000); settings: 20 nM to 20 μM, 24, 48 or 72 hours, read-out: Mitotic Arrest (≥5%)
# [17] = tested on: gastric cancer cell line NCI-N87; assay: Minimal effective concentration that elicits polyploidy, NCI-N87; settings: Homo sapiens, read-out: MECP: Minimal effective concentration that elicits polyploidy
EC50 [1] [µM],EC50 [4] [µM],EC50 [5] [µM],EC50 [6] [µM],EC50 [9] [µM],EC50 [12] [µM],EC50 [13] [µM],EC50 [15] [µM],SMILES,minimal effective concentration [2] [µM],minimal effective concentration [3] [µM],minimal effective concentration (SW480) [µM],minimal effective concentration [7] [µM],minimal effective concentration [8] [µM],minimal effective concentration [10] [µM],minimal effective concentration [11] [µM],minimal effective concentration (RPEMYC^H2B-GFP cells [14]) [µM],minimal effective concentration (RPEMYC^H2B-GFP cells [16]) [µM],minimal effective concentration [17] [µM]
0.001 to 1,0.001 to 1,0.001 to 1,0.001 to 1,0.001 to 1,0.001 to 1,0.001 to 1,0.001 to 1,"COc1cc(Oc2ncccc2-c2ccncc2)cc(C(=O)O)c1 [Compound 3, 3-([3,4′-bipyridin]-2-yloxy)-5-methoxybenzoic acid]",0.001 to 1,0.001 to 1,0.001 to 1,0.001 to 1,0.001 to 1,0.001 to 1,0.001 to 1,> 30,> 30,0.001 to 1
0.001 to 1,0.001 to 1,1 to 10,0.001 to 1,0.001 to 1,0.001 to 1,0.001 to 1,0.001 to 1,"CNC(=O)c1cc(OC)cc(Oc2ncccc2-c2ccncc2)c1 [Compound 4, 3-([3,4′-bipyridin]-2-yloxy)-5-methoxy-N-methylbenzamide]",0.001 to 1,0.001 to 1,0.001 to 1,0.001 to 1,0.001 to 1,0.001 to 1,0.001 to 1,1,1,0.001 to 1
0.001 to 1,0.001 to 1,0.001 to 1,0.001 to 1,0.001 to 1,0.001 to 1,0.001 to 1,0.001 to 1,"CNC(=O)c1cc(Oc2ncccc2-c2ccncc2)cc(OC(F)(F)F)c1 [Compound 7, 3-([3,4′-bipyridin]-2-yloxy)-N-methyl-5-(trifluoromethoxy)benzamide]",0.001 to 1,0.001 to 1,0.001 to 1,0.001 to 1,0.001 to 1,0.001 to 1,0.001 to 1,1,1,0.001 to 1
0.001 to 1,0.001 to 1,0.001 to 1,0.001 to 1,0.001 to 1,0.001 to 1,0.001 to 1,0.001 to 1,"CNC(=O)c1cc(Oc2ncccc2-c2ccncc2)cc(C(F)(F)F)c1 [Compound 8, 3-([3,4′-bipyridin]-2-yloxy)-N-methyl-5-(trifluoromethyl)benzamide]",0.001 to 1,0.001 to 1,0.001 to 1,0.001 to 1,0.001 to 1,0.001 to 1,0.001 to 1,1,1,0.001 to 1
0.001 to 1,0.001 to 1,0.001 to 1,0.001 to 1,0.001 to 1,0.001 to 1,0.001 to 1,0.001 to 1,"COc1cc(Oc2ncccc2-c2ccncc2)cc(-n2cncn2)c1 [Compound 12, 2-(3-methoxy-5-(1H-1,2,4-triazol-1-yl)phenoxy)-3,4′-bipyridine]",0.001 to 1,0.001 to 1,0.001 to 1,0.001 to 1,0.001 to 1,0.001 to 1,0.001 to 1,1,1,0.001 to 1
0.001 to 1,0.001 to 1,0.001 to 1,0.001 to 1,0.001 to 1,0.001 to 1,0.001 to 1,0.001 to 1,"COc1cc(NC(C)=O)cc(Oc2ncccc2-c2ccncc2)c1 [Compound 13, N-(3-([3,4′-bipyridin]-2-yloxy)-5-methoxyphenyl)acetamide]",0.001 to 1,0.001 to 1,0.001 to 1,0.001 to 1,0.001 to 1,0.001 to 1,0.001 to 1,1,1,0.001 to 1
0.001 to 1,0.001 to 1,0.001 to 1,0.001 to 1,0.001 to 1,0.001 to 1,0.001 to 1,0.001 to 1,"COc1cc(OC)cc(Oc2ncccc2-c2ccncc2)c1 [Compound 14, 2-(3,5-dimethoxyphenoxy)-3,4′-bipyridine]",0.001 to 1,0.001 to 1,0.001 to 1,0.001 to 1,0.001 to 1,0.001 to 1,0.001 to 1,1,1,0.001 to 1
0.001 to 1,0.001 to 1,0.001 to 1,,0.001 to 1,10 to 30,0.001 to 1,0.001 to 1,COC(=O)c1cc(OC)cc(Oc2nccnc2-c2ccncc2)c1 [Compound 17],0.001 to 1,0.001 to 1,,0.001 to 1,0.001 to 1,0.001 to 1,0.001 to 1,1,1,0.001 to 1
